The values below come from PMC10466336, “Chemical Probe for Imaging of Polo-like Kinase 4 and Centrioles” (JACS Au, 2023).

This assay concerns the target T1, GFP-Plk4(K41M) in transfected HeLa cells (Homo sapiens, UniProt O00444, K41M).
T1 construct: expressed in transfected cells; host or cells: HeLa
T1 sequence (O00444 1-970 K41M): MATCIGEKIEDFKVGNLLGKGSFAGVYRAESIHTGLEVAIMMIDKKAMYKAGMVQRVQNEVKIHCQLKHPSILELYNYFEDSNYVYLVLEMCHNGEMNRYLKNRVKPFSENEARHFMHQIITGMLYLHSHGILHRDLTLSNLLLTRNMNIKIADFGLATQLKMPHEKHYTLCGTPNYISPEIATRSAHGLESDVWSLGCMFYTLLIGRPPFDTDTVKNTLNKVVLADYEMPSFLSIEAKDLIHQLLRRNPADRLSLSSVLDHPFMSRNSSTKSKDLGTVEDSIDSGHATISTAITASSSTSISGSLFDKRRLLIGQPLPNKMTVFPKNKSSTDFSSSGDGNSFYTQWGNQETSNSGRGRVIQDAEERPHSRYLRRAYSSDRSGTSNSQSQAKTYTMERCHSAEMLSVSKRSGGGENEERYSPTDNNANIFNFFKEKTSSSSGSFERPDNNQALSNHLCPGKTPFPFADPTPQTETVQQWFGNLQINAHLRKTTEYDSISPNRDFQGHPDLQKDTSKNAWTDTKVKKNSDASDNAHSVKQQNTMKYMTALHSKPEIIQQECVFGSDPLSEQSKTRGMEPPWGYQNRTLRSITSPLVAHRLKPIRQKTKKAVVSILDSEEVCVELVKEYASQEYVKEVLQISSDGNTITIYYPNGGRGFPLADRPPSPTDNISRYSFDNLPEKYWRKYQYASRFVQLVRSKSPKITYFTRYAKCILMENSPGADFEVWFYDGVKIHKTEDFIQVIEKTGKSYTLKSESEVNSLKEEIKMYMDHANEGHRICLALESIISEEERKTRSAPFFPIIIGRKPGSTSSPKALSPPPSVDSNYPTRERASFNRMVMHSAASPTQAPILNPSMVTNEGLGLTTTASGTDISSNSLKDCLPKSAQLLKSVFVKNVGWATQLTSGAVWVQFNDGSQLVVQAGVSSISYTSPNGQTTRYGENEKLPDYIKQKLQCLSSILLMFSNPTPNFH
Nature of the assay: Live-cell confocal/STED imaging of overexpressed Plk4. The conditions noted are these: Cen-TCO 500 nM 1 h, tetrazine 500 nM, no wash (Figure S6). It counts as cell-based.

Turning to `Cc1nnc(COc2cccc3c2C2(OC3=O)c3ccc(N(C)C)cc3[Si](C)(C)c3cc(N(C)C)ccc32)nn1` [HD653, reference compound], the “unspecific signal among tetrazines after Cen-TCO labeling” value is on record as “lowest unspecific signal”.
